Measurements reported in patent US8486981B2, “Selective ligands for the dopamine 3 (D3) receptor and methods of using the same” (The Regents of the University of Michigan, priority 2011, dated 2013).

What was measured:
D3 dopamine receptors = target: T1, D3 dopamine receptors (Rattus norvegicus, UniProt P19020); experiment: [3H]R(+)-7-OH-DPAT binding assay, rat ventral striatum membranes; details: rat brain; for Ki: mean ± SEM of 3-6 determinations; for Selectivity D1-like/D3 / Selectivity D2-like/D3: ratio of Ki values
T1 construct: Rat ventral striatum (nucleus accumbens and olfactory tubercles) was prepared in assay buffer; tissue Pel-Freez, Rogers, Ark; host or cells: rat ventral striatum (nucleus accumbens and olfactory tubercles) membranes
Description: All the synthesized compounds were determined for the binding affinities at the D3, D1-like and D2-like receptors in membranes prepared from the brains of adult, male Sprague-Dawley rats (Pel-Freez, Rogers, Ark.). All compounds were dissolved in 100% EtOH at a concentration of 5 mM.
[^3H]R(+)-7-OH-DPAT Binding Assays.
[^3H]R-(+)-7-OH-DPAT binding assays for the D3 dopamine receptors were performed as previously described in detail.^(44),(45) Rat ventral striatum (nucleus accumbens and olfactory tubercles) was prepared in assay buffer (50 mM Tris, 1 mM EDTA; pH 7.4 at 23° C.) to yield a final concentration of 10 mg original wet weight (o.w.w.)/ml. […] Nonspecific binding was defined by 1 μM spiperone. Assay tubes were incubated at 23° C. for 90 min. The reaction was terminated by rapid vacuum filtration.

D3 and D2 receptors = experiment: Effect on pramipexole-induced yawning in rats; format: in vivo, rat; details: 30-min pretreatment; 38/52 […], SB-277011A 32 mg/kg, L-741,626 1.0 mg/kg
Description: (§1) Male Sprague-Dawley rats (Harlan; Indianapolis, Ind.) weighing 250-300 g were housed three to a cage for yawning studies, and one to a cage for hypothermia studies, and maintained on a 12-h dark/light cycle with lights on at 7:00 AM in a temperature (21-23° C.) and humidity controlled environment with free access to standard Purina rodent chow and water. […] All drugs were administered subcutaneously (s.c.) in a volume of 1 ml/kg.
(§2) Observation of yawning behavior began immediately after each injection, and the total number of yawns was recorded for 60 min thereafter.
(§3) Dose-response curves for the induction of yawning and hypothermia were determined with 6 rats per group, and results expressed as the mean number of yawns, or change in body temperature 60 min post agonist injection compared to the body temperature 1 min prior to the agonist injection±standard error of the mean (SEM).

Solubility in water = format: physicochemical
D2 receptor [1] = target: T2, D2 receptor (Rattus norvegicus, UniProt P61169); experiment: Effect on pramipexole-induced hypothermia in rats; format: in vivo; details: pretreatment 10.0 mg/kg; pramipexole 1.0 mg/kg
T2 construct: evaluated for the effect in the induction of yawning and hypothermia in rats; tissue Harlan; Indianapolis, Ind; host or cells: living male Sprague-Dawley rats
Description: as §1, §2, §3

D3 receptor = target: T3, D3 receptor (Rattus norvegicus, UniProt P19020); experiment: Induction of yawning behavior in rats; format: in vivo; details: for Emax: rat, read-out: Increase in yawning relative to maximum effect of pramipexole at 0.1 mg/kg, doses between 0.0032 and 3.2 mg/kg; for Emax / Lowest dose active (significant increase in yawning): rats; for Lowest dose active (significant increase in yawning): s.c., yawns/60 min; for In vivo functional activity at the D3 receptor: yawning assays in rats
T3 construct: evaluated for the effect in the induction of yawning and hypothermia in rats; tissue Harlan; Indianapolis, Ind; host or cells: living male Sprague-Dawley rats
Description: as §1
Yawning behavior was defined as a prolonged (˜1 sec.), wide opening of the mouth followed by a rapid closure. On the day of testing, rats were transferred from their home cage to a test chamber (48 cm×23 cm×20 cm clear rodent cage with standard cob bedding), and allowed to habituate to the chamber for a period of 30 min prior to a sterile water injection which was administered 30 min prior to the injection of the compound of interest. Yawns were scored for a period of 60 min thereafter. Each compound was assessed in groups of 6 rats, with each rat receiving a single dose of one compound. Food and water were unavailable during test sessions, and all experiments were conducted between the hours of 12:00 PM and 6:00 PM with at least 72 hrs between test sessions to allow for drug washout.
as §3

D2 receptor [2] = target: T2, D2 receptor; experiment: Hypothermia assay (core body temperature) in rats; format: in vivo; details: 10.0 mg/kg s.c.
Description: as §1
Rats were anesthetized with ketamine/xylazine (100/10 mg/kg; i.p.) and their abdominal area was shaved and cleaned with alternating betadine and alcohol swabs prior to surgical implantation of radio-telemetric probes (E-4000 E-Mitter, Mini-Mitter, Bend, Oreg., USA). […]
On the day of testing, rats were weighed and returned to their home cages, which were placed onto a receiving pad (ER-4000 Receiver, Mini-mitter, Bend, Oreg.) to allow for the collection of core body temperature. Temperature measurements were taken every min with at least 30 min of baseline temperature data recorded prior to the administration of antagonist or vehicle. Agonist or vehicle injections were administered 30 min thereafter, and core body temperature was recorded for a period of at least the next 60 min. […]

T1 sequence (P19020 whole entry): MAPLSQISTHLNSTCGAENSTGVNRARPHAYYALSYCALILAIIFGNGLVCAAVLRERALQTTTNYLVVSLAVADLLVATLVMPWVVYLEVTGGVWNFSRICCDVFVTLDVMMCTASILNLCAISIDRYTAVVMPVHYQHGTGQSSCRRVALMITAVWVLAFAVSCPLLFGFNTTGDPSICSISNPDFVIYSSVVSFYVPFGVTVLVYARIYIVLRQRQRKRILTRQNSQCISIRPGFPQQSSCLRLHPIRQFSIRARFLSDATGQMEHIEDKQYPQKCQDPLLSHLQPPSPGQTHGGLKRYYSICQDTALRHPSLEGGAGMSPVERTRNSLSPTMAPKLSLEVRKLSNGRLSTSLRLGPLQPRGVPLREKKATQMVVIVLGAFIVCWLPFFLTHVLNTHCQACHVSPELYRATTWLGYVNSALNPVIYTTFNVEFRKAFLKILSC
T3 sequence (P19020 whole entry): as above
T2 sequence (P61169 whole entry): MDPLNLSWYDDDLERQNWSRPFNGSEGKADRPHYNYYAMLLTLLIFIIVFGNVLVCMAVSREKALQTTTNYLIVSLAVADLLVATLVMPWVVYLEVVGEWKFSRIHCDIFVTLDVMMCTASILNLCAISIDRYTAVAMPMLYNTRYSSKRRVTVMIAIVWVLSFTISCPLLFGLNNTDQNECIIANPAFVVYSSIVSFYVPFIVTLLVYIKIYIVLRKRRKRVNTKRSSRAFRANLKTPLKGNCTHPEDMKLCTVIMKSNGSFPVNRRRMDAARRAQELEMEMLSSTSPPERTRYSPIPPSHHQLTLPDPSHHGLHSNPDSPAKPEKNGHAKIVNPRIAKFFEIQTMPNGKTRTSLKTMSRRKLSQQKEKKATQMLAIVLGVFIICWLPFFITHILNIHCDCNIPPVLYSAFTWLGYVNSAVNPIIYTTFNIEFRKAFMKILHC

Q: Which Ki (D3 dopamine receptors) does the source give for `CCCN(CCC1CCC(NC(=O)c2cccc(-c3noc(CC)n3)c2)CC1)C1CCc2nc(N)sc2C1` (single isomer, unassigned) [Compound 37] here?
A: 1.5 nM

Q: And the “Selectivity D1-like/D3” value (D3 dopamine receptors)?
A: 3,448

Q: What about the “Selectivity D2-like/D3” value (D3 dopamine receptors) of the same molecule?
A: 339

Q: Which Ki (D3 dopamine receptors) does the source give for `CCCN(CCC1CCC(NS(=O)(=O)c2cccc(Cl)c2)CC1)C1CCc2nc(N)sc2C1` (stereo in doubt) [Compound 45, Trans-N-(4-2-(((s)-2-amino-4,5,6,7-tetrahydrobenzo[d]thiazol-6-yl)(propyl)amino)ethylcyclohexyl)-3-chlorobenzenesulfonamide] here?
A: 1.1 ± 0.1 nM

Q: For `CCCN(CCC1CCC(NC(=O)c2ccc(-c3noc(C4CC4)n3)cc2)CC1)C1CCc2nc(N)sc2C1` (single isomer, unassigned) [Compound 36], which Ki (D3 dopamine receptors) is on record?
A: 3.5 ± 0.57 nM

Q: What about the “Selectivity D1-like/D3” value (D3 dopamine receptors) of the same molecule?
A: 3,245

Q: For `CCCN(CCC1CCC(NC(=O)c2cccc(-c3noc(C)n3)c2)CC1)C1CCc2nc(N)sc2C1` (stereo in doubt) [Compound 38, Trans-N-(4-2-(((s)-2-amino-4,5,6,7-tetrahydrobenzo[d]thiazol-6-yl)(propyl)amino)ethylcyclohexyl)-3-(5-methyl-1,2,4-oxadiazol-3-yl)benzamide], which “Effect on yawning induced by 0.1 mg/kg pramipexole” value (D3 and D2 receptors) is on record?
A: effectively inhibited

Q: And the solubility (Solubility in water)?
A: > 100 mg/mL

Q: And the “Effect on hypothermic effects of pramipexole” value (D2 receptor [1])?
A: slight, but significant reductions

Q: And the Emax (D3 receptor)?
A: 25%

Q: What about the “Lowest dose active (significant increase in yawning)” value (D3 receptor) of the same molecule?
A: 3.2 µg/kg

Q: What about the “In vivo functional activity at the D3 receptor” value (D3 receptor) of the same molecule?
A: partial agonists at the D3 receptor

Q: And the Induction of hypothermia (D2 receptor [2])?
A: significant effect in induction of hypothermia

Q: What about the Ki (D3 dopamine receptors) of the same molecule?
A: 0.73 nM

Q: What about the “Selectivity D2-like/D3” value (D3 dopamine receptors) of the same molecule?
A: 494

Q: Which results are given for `N#Cc1ccc2c(c1)CCN(CCC1CCC(NC(=O)c3ccnc4ccccc34)CC1)C2` (stereo not drawn) [SB-277011A, reference compound]?
A: Effect on yawning at […] pramipexole (D3 and D2 receptors): inhibited the induction of yawning; Effect on yawning induced by 0.1 mg/kg pramipexole (D3 and D2 receptors): inhibited the induction of yawning

Q: With `CCCN(CCC1CCC(NC(=O)c2ccc(-c3noc(C(C)C)n3)cc2)CC1)C1CCc2nc(N)sc2C1` (single isomer, unassigned) [Compound 35] as the molecule, how does the Ki (D3 dopamine receptors) read?
A: 2 ± 0.19 nM

Q: What about the “Selectivity D1-like/D3” value (D3 dopamine receptors) of the same molecule?
A: 5,366

Q: Which “Effect on yawning induced by 0.1 mg/kg pramipexole” value (D3 and D2 receptors) does the source give for `CCCN(CCC1CCC(NS(=O)(=O)c2cccnc2Cl)CC1)C1CCc2nc(N)sc2C1` (stereo in doubt) [Compound 52, Trans-N-(4-2-(((s)-2-amino-4,5,6,7-tetrahydrobenzo[d]thiazol-6-yl)(propyl)amino)ethylcyclohexyl)-2-chloropyridine-3-sulfonamide] here?
A: effectively inhibited

Q: And the “Effect on hypothermic effects of pramipexole” value (D2 receptor [1])?
A: slight, but significant reductions

Q: What about the Emax (D3 receptor) of the same molecule?
A: 25%

Q: What about the “Lowest dose active (significant increase in yawning)” value (D3 receptor) of the same molecule?
A: 3.2 µg/kg

Q: What about the “In vivo functional activity at the D3 receptor” value (D3 receptor) of the same molecule?
A: partial agonists at the D3 receptor

Q: And the Induction of hypothermia (D2 receptor [2])?
A: significant effect in induction of hypothermia

Q: What about the Ki (D3 dopamine receptors) of the same molecule?
A: 0.38 nM

Q: What about the “Selectivity D2-like/D3” value (D3 dopamine receptors) of the same molecule?
A: 451

Q: For `CCCN(CCC1CCC(NS(=O)(=O)c2ccc(Cl)nc2)CC1)C1CCc2nc(N)sc2C1` (stereo in doubt) [Compound 51, Trans-N-(4-2-(((s)-2-amino-4,5,6,7-tetrahydrobenzo[d]thiazol-6-yl)(propyl)amino)ethylcyclohexyl)-6-chloropyridine-3-sulfonamide], which Ki (D3 dopamine receptors) is on record?
A: 0.63 ± 0.04 nM

Q: And the “Selectivity D1-like/D3” value (D3 dopamine receptors)?
A: 12,933

Q: With `CCCN(CCC1CCC(NS(=O)(=O)c2cccc(F)c2)CC1)C1CCc2nc(N)sc2C1` (stereo in doubt) [Compound 43, Trans-N-(4-2-(((s)-2-amino-4,5,6,7-tetrahydrobenzo[d]thiazol-6-yl)(propyl)amino)ethylcyclohexyl)-3-fluorobenzenesulfonamide] as the molecule, how does the Ki (D3 dopamine receptors) read?
A: 0.72 nM

Q: For `CCCN(CCC1CCC(NC(=O)c2ccc(-c3noc(C)n3)cc2)CC1)C1CCc2nc(N)sc2C1` (stereo in doubt) [Compound 33, Trans-N-(4-2-(((s)-2-amino-4,5,6,7-tetrahydrobenzo[d]thiazol-6-yl)(propyl)amino)ethylcyclohexyl)-4-(5-methyl-1,2,4-oxadiazol-3-yl)benzamide], which Ki (D3 dopamine receptors) is on record?
A: 1.3 nM

Q: What about the “Selectivity D1-like/D3” value (D3 dopamine receptors) of the same molecule?
A: 27,041

Q: What about the “Selectivity D2-like/D3” value (D3 dopamine receptors) of the same molecule?
A: 345

Q: With `CCCN(CCC1CCC(NS(=O)(=O)c2cnccc2Cl)CC1)C1CCc2nc(N)sc2C1` (stereo in doubt) [Compound 53, Trans-N-(4-2-(((s)-2-amino-4,5,6,7-tetrahydrobenzo[d]thiazol-6-yl)(propyl)amino)ethylcyclohexyl)-4-chloropyridine-3-sulfonamide] as the molecule, how does the Ki (D3 dopamine receptors) read?
A: 0.93 nM

Q: What does the source list for `CCCN(CCC1CCC(NC(=O)c2ccc(-c3noc(CC)n3)cc2)CC1)C1CCc2nc(N)sc2C1` (stereo in doubt) [Compound 34, Trans-N-(4-2-(((s)-2-amino-4,5,6,7-tetrahydrobenzo[d]thiazol-6-yl)(propyl)amino)ethylcyclohexyl)-4-(5-ethyl-1,2,4-oxadiazol-3-yl)benzamide]?
A: Ki (D3 dopamine receptors): 2.1 ± 0.15 nM; Selectivity D1-like/D3 (D3 dopamine receptors): 8,381

Q: With `CCCN(CCC1CCC(NS(=O)(=O)c2ccccc2Cl)CC1)C1CCc2nc(N)sc2C1` (stereo in doubt) [Compound 47, Trans-N-(4-2-(((s)-2-amino-4,5,6,7-tetrahydrobenzo[d]thiazol-6-yl)(propyl)amino)ethylcyclohexyl)-2-chlorobenzenesulfonamide] as the molecule, how does the Ki (D3 dopamine receptors) read?
A: 0.68 ± 0.06 nM

Q: For `CCCN(CCC1CCC(NS(=O)(=O)c2ccc(Cl)cc2)CC1)C1CCc2nc(N)sc2C1` (stereo in doubt) [Compound 46, Trans-N-(4-2-(((s)-2-amino-4,5,6,7-tetrahydrobenzo[d]thiazol-6-yl)(propyl)amino)ethylcyclohexyl)-4-chlorobenzenesulfonamide], which Ki (D3 dopamine receptors) is on record?
A: 0.95 ± 0.01 nM

Q: What about the “Selectivity D1-like/D3” value (D3 dopamine receptors) of the same molecule?
A: 8,754

Q: And the “Selectivity D2-like/D3” value (D3 dopamine receptors)?
A: 75

Q: Which Ki (D3 dopamine receptors) does the source give for `CCCN(CCC1CCC(NS(=O)(=O)c2ccc(OC)cc2)CC1)C1CCc2nc(N)sc2C1` (stereo in doubt) [Compound 44, Trans-N-(4-2-(((s)-2-amino-4,5,6,7-tetrahydrobenzo[d]thiazol-6-yl)(propyl)amino)ethylcyclohexyl)-4-methoxybenzenesulfonamide] here?
A: 0.78 nM

Q: What about the “Selectivity D1-like/D3” value (D3 dopamine receptors) of the same molecule?
A: 27,487

Q: And the “Selectivity D2-like/D3” value (D3 dopamine receptors)?
A: 49

Q: Which results are given for `OC1(c2ccc(Cl)cc2)CCN(Cc2c[nH]c3ccccc23)CC1` [L-741,626, reference compound]?
A: Effect on yawning at […] pramipexole (D3 and D2 receptors): reversed the inhibition of yawning; Effect on yawning induced by 0.1 mg/kg pramipexole (D3 and D2 receptors): failed to alter the induction of yawning
